Data set [1] is described as follows: Molar enthalpy of transition or fusion. As to conditions: Crystal; Differential scanning calorimeter. Background: DSC measures the heat that a sample takes up or gives off during a temperature scan.
For data set [2] the following is noted: Crystal; Differential scanning calorimeter.

Structures are written as SMILES.

`O=C(C(=O)c1ccccc1)c1ccccc1` [1,2-diphenylethanedione]: the “Molar enthalpy of transition or fusion” value in data set [1] is 23.3 kJ/mol. For the same molecule, the Normal melting temperature in data set [2] amounted to 95 °C.
In the same order, the values of `O=C(O)C(c1ccccc1)c1ccccc1` [2,2-diphenylethanoic acid] are 31.2 kJ/mol and 147.2 °C.
In the same order, the values of `CC(=O)Nc1ccccc1` [N-phenylethanamide] are 21.8 kJ/mol and 114.4 °C.
For `O=C(O)c1ccccc1` [benzoic acid], in that order: 18 kJ/mol and 122.4 °C.
Turning to `c1ccc(-c2ccccc2)cc1` [biphenyl], in data set [1], the “Molar enthalpy of transition or fusion” value is 18.5 kJ/mol. For the same molecule, the Normal melting temperature in data set [2] amounted to 69.0 °C.
In the same order, the values of `c1ccc2ccccc2c1` [naphthalene] are 18.8 kJ/mol and 80.2 °C.
For `O=C(Oc1ccccc1)c1ccccc1O` [phenyl salicylate], in that order: 19 kJ/mol and 41.8 °C.

The record behind these values is the NIST ThermoML archive (doi:10.1016/j.tca.2012.03.028).
